Source: patent US20030215462A1, “Use of UGT inhibitors to increase bioavailability” (priority 2001, published 2003)
Where “and” joins values, the source holds several entries; their conditions need not be identical. Equal values may be shown once. Read-outs that look alike come from different tables or passages of the source. One block for each compound: values may come before it.

Key:
Type in all cases: biochemical
[1] = system: T1, UGT enzymes of human liver microsomes; assay: Inhibition of 7-HFC glucuronidation in human liver microsomes; conditions: for % of control metabolism (SD, n = 3), 7-HFC glucuronidation / IC50: 7-HFC 50 μM, 15 min; for % of control metabolism (SD, n = 3), 7-HFC glucuronidation: human liver microsomes 100 μg/ml; for IC50: 1 mM UDPGA
T1 construct: percentage of control metabolism, 7-HFC glucuronidation; percentage of control metabolism, 7-HFC glucuronidation

[2] = system: UGT enzymes of human liver microsomes; assay: Inhibition of raloxifene glucuronidation (G1, G2) in human liver microsomes
From the text: Compounds were eluted using a binary solvent gradient system. […] Solvent B was methanol. […] Detection was at 280 nm.

[3] = target: T2, UGT enzymes of human liver microsomes (Homo sapiens, UniProt P16662); assay: Inhibition of zidovudine glucuronidation in human liver microsomes; conditions: liver lot 062101; inhibitor 500 μM
T2 construct: residual metabolism (percentage of control), zidovudine glucuronidation; other: liver lot 062101; residual metabolism (percentage of control), zidovudine glucuronidation; residual metabolism (percentage of control)
T2 sequence (P16662 1-529): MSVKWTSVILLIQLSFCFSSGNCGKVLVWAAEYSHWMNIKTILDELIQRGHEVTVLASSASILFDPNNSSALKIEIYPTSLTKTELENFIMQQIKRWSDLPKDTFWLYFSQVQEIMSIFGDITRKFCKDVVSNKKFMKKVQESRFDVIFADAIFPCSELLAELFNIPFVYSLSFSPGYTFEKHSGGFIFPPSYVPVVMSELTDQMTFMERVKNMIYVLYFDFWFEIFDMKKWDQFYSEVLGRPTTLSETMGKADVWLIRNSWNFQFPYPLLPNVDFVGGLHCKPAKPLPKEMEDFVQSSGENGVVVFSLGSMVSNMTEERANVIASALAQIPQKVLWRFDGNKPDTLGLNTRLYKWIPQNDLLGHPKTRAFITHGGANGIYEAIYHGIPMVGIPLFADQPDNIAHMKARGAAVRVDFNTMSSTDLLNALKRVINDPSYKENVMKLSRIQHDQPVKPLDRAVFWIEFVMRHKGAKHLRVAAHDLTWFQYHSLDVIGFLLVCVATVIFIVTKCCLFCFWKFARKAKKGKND
Protocol: Compounds were eluted using a binary solvent gradient system where solvent A was dilute phosphoric acid (pH 3) and solvent B was acetonitrile.
Standardized incubations utilized 500 μM zidovudine substrate, 1 mg/ml microsomal protein, 5 mM UDPGA and a 30 min incubation time. […] Int.

[4] = G1, inhibitor 500 μM, raloxifene 50 μM, human liver microsomes 250 μg/ml, 15 min
[5] = G2, inhibitor 500 μM, raloxifene 50 μM, human liver microsomes 250 μg/ml, 15 min
[6] = G1, inhibitor 100 μM, raloxifene 50 μM, human liver microsomes 250 μg/ml, 15 min
[7] = G2, inhibitor 100 μM, raloxifene 50 μM, human liver microsomes 250 μg/ml, 15 min

Compound: CCCCCCCCCCCCCCCCCC(=O)OC[C@H](O)[C@H]1OC(=O)C(O)=C1O [Ascorbyl stearate]
% of control metabolism (SD, n = 3), 7-HFC glucuronidation ([1]; inhibitor 500 μM): 73 (2) %

Compound: CCCCCCCCCCCCCCCC(=O)O[C@H]1CC[C@@]2(C)C(=CC[C@H]3[C@@H]4CC[C@H]([C@H](C)CCCC(C)C)[C@@]4(C)CC[C@@H]32)C1 [Cholesteryl palmitate]
% of control metabolism (SD, n = 3), 7-HFC glucuronidation ([1]; inhibitor 500 μM): 100 (3) %

Compound: CC(C)[C@@H]1CC[C@@H](C)C[C@H]1O[C@@H]1O[C@H](C(=O)O)[C@@H](O)[C@H](O)[C@H]1O [Menthol glucuronide]
% of control metabolism (SD, n = 3), raloxifene glucuronide G1 [2]: 91 (2) %
% of control metabolism (SD, n = 3), raloxifene glucuronide G2 [2]: 84 (1) %
% of control metabolism (SD, n = 3), 7-HFC glucuronidation ([1]; inhibitor 500 μM): 94 (4) %

Compound: CN(C)CCC=C1c2ccccc2CCc2ccccc21 [Amitriptyline, reference compound]
% of control metabolism (SD, n = 3), raloxifene glucuronide G1 [2, 4]: 138 (6) %
% of control metabolism (SD, n = 3), raloxifene glucuronide G2 [2, 5]: 132 (5) %
% of control metabolism (SD, n = 3), 7-HFC glucuronidation ([1]; inhibitor 500 μM): 94 (1) %

Compound: O=C1O[C@H]([C@@H](O)CO)C(O)=C1O [Ascorbic acid]
% of control metabolism (SD, n = 3), 7-HFC glucuronidation ([1]; inhibitor 500 μM): 99 (1) %

Compound: COc1ccc2cc([C@H](C)C(=O)[O-])ccc2c1.[Na+] [Naproxen Na salt]
% of control metabolism (SD, n = 3), 7-HFC glucuronidation ([1]; inhibitor 500 μM): 82 (1) %

Compound: COc1ccc2cc([C@H](C)C(=O)O)ccc2c1 [Naproxen Free Acid]
% of control metabolism (SD, n = 3), raloxifene glucuronide G1 [2]: 81 (3) %
% of control metabolism (SD, n = 3), raloxifene glucuronide G2 [2]: 78 (2) %
% of control metabolism (SD, n = 3), 7-HFC glucuronidation ([1]; inhibitor 500 μM): 83 (1) %

Compound: COc1c2ccoc2cc2oc(=O)ccc12 [5-Methoxypsoralen (bergapten)]
% of control metabolism (SD, n = 3), 7-HFC glucuronidation ([1]; inhibitor 500 μM): 97 (1), % and 92 (1) %

Compound: CCCCCCCCCCCCCCCC(=O)OC[C@H](O)[C@H]1OC(=O)C(O)=C1O [Ascorbyl palmitate]
% of control metabolism (SD, n = 3), raloxifene glucuronide G1 [2, 6]: 57 (2) %
% of control metabolism (SD, n = 3), raloxifene glucuronide G1 [2, 4]: 26 (1) %
% of control metabolism (SD, n = 3), raloxifene glucuronide G2 [2, 7]: 71 (4) %
% of control metabolism (SD, n = 3), raloxifene glucuronide G2 [2, 5]: 36 (5) %
IC50 [1]: 200 µM
percentage of control metabolism, 7-HFC glucuronidation ([1]; inhibitor 100 μM): 64 (1) %
% of control metabolism (SD, n = 3), 7-HFC glucuronidation ([1]; inhibitor 100 μM): 64 (1) %
percentage of control metabolism, 7-HFC glucuronidation ([1]; inhibitor 200 μM): 51 (1) %
% of control metabolism (SD, n = 3), 7-HFC glucuronidation ([1]; inhibitor 200 μM): 51 (1) %
percentage of control metabolism, 7-HFC glucuronidation ([1]; inhibitor 500 μM): 11 (3) % and 17 (0) %
% of control metabolism (SD, n = 3), 7-HFC glucuronidation ([1]; inhibitor 500 μM): 11 (3), % and 17 (0) %

Compound: OCC=Cc1ccccc1 [Cinnamyl alcohol]
% of control metabolism (SD, n = 3), 7-HFC glucuronidation ([1]; inhibitor 500 μM): 87 (1) %

Compound: CCCCNC(=O)NS(=O)(=O)c1ccc(C)cc1 [Tolbutamide]
% of control metabolism (SD, n = 3), raloxifene glucuronide G1 [2]: 98 (7) %
% of control metabolism (SD, n = 3), raloxifene glucuronide G2 [2]: 91 (2) %
% of control metabolism (SD, n = 3), 7-HFC glucuronidation ([1]; inhibitor 500 μM): 100 (0) %

Compound: Cc1cn([C@H]2C[C@H](N=[N+]=[N-])[C@@H](CO[C@@H]3O[C@H](C(=O)O)[C@@H](O)[C@H](O)[C@H]3O)O2)c(=O)[nH]c1=O [AZT glucuronide]
% of control metabolism (SD, n = 3), 7-HFC glucuronidation ([1]; inhibitor 500 μM): 103 (1) %

Compound: CCCC(=O)OCC(O)C1OC(=O)C(OC(=O)CCC)=C1O (stereo not shown) [Ascorbyl-2,6-dibutyrate]
% of control metabolism (SD, n = 3), 7-HFC glucuronidation ([1]; inhibitor 500 μM): 92 (1) %

Compound: O=[N+]([O-])c1ccc(O)cc1 [p-Nitrophenol, reference compound]
% of control metabolism, raloxifene G1 [2]: 37 (0), 42 (2) % and 49 (2), 51 (2) % and 63 (4), 66 (1) %
% of control metabolism, raloxifene G2 [2]: 37 (0), 42 (2) % and 49 (2), 51 (2) % and 63 (4), 66 (1) %
% of control metabolism (SD, n = 3), 7-HFC glucuronidation ([1]; inhibitor 500 μM): 62 (1) %

Other lines, results leading:

% of control metabolism (SD, n = 3), 7-HFC glucuronidation ([1]; inhibitor 500 μM): 117 (2) %
Compound: O=C(O)c1cc(O)c(O)c(O)c1 [Gallic acid]

% of control metabolism (SD, n = 3), raloxifene glucuronide G1 [2, 4]: 75 (2) %
% of control metabolism (SD, n = 3), raloxifene glucuronide G2 [2, 5]: 80 (2) %
% of control metabolism (SD, n = 3), 7-HFC glucuronidation ([1]; inhibitor 500 μM): 81 (3) %
Compound: COc1ccc2cc(CCC(C)=O)ccc2c1 [Nabumetone]

% of control metabolism (SD, n = 3), 7-HFC glucuronidation ([1]; inhibitor 500 μM): 104 (2) %
Compound: CCCCCCCCCCCCCCCC(=O)O [Palmitic acid]

residual metabolism (percentage of control), zidovudine glucuronidation [3]: 81 (4) %
Compound: COc1cc(C=O)ccc1O [Vanillin]

% of control metabolism (SD, n = 3), 7-HFC glucuronidation ([1]; inhibitor 500 μM): 70 (3) %
Compound: CCCCCCCCCCCCCCCC(=O)Oc1cccc2ccccc12 [α-Naphthyl palmitate]

% of control metabolism (SD, n = 3), 7-HFC glucuronidation ([1]; inhibitor 100 μM): 72 (1) %
% of control metabolism (SD, n = 3), 7-HFC glucuronidation ([1]; inhibitor 200 μM): 60 (3) %
% of control metabolism (SD, n = 3), 7-HFC glucuronidation ([1]; inhibitor 500 μM): 48 (1) %
Compound: CC(=O)OC/C=C(C)/C=C/C=C(C)/C=C/C1=C(C)CCCC1(C)C [Retinyl acetate]

% of control metabolism (SD, n = 3), raloxifene glucuronide G1 [2, 4]: 46 (3) %
% of control metabolism (SD, n = 3), raloxifene glucuronide G2 [2, 5]: 60 (3) %
% of control metabolism (SD, n = 3), 7-HFC glucuronidation ([1]; inhibitor 500 μM): 84 (2) %
Compound: C[C@]12CC[C@@H]3c4ccc(O)cc4CC[C@H]3[C@@H]1C[C@@H](O)[C@@H]2O [Estriol]

% of control metabolism (SD, n = 3), raloxifene glucuronide G1 [2, 6]: 64 (4) %
% of control metabolism (SD, n = 3), raloxifene glucuronide G1 [2, 4]: 7 (0) %
% of control metabolism (SD, n = 3), raloxifene glucuronide G2 [2, 7]: 85 (3) %
% of control metabolism (SD, n = 3), raloxifene glucuronide G2 [2, 5]: 37 (1) %
IC50 [1]: 100 µM
percentage of control metabolism, 7-HFC glucuronidation ([1]; inhibitor 25 μM): 92 (3) %
% of control metabolism (SD, n = 3), 7-HFC glucuronidation ([1]; inhibitor 25 μM): 92 (3) %
percentage of control metabolism, 7-HFC glucuronidation ([1]; inhibitor 50 μM): 76 (2) %
% of control metabolism (SD, n = 3), 7-HFC glucuronidation ([1]; inhibitor 50 μM): 76 (2) %
percentage of control metabolism, 7-HFC glucuronidation ([1]; inhibitor 100 μM): 43 (2) % and 49 (1) %
% of control metabolism (SD, n = 3), 7-HFC glucuronidation ([1]; inhibitor 100 μM): 43 (2) % and 49 (1) %
percentage of control metabolism, 7-HFC glucuronidation ([1]; inhibitor 200 μM): 22 (1) %
% of control metabolism (SD, n = 3), 7-HFC glucuronidation ([1]; inhibitor 200 μM): 22 (1) %
percentage of control metabolism, 7-HFC glucuronidation ([1]; inhibitor 500 μM): 18 (6) %
% of control metabolism (SD, n = 3), 7-HFC glucuronidation ([1]; inhibitor 500 μM): 18 (6) %
Compound: CCCCCCCCCCCCOC(=O)c1cc(O)c(O)c(O)c1 [Lauryl gallate]

% of control metabolism (SD, n = 3), 7-HFC glucuronidation ([1]; inhibitor 500 μM): 71 (2) %
Compound: CC(C)=CCC/C(C)=C\CO [Nerol]

% of control metabolism (SD, n = 3), 7-HFC glucuronidation ([1]; inhibitor 500 μM): 89 (3) %
Compound: CCCCCCCCCCCCCCCC(=O)OCC [Ethyl palmitate]

% of control metabolism (SD, n = 3), 7-HFC glucuronidation ([1]; inhibitor 100 μM): 90 (3) %
% of control metabolism (SD, n = 3), 7-HFC glucuronidation ([1]; inhibitor 200 μM): 82 (1) %
% of control metabolism (SD, n = 3), 7-HFC glucuronidation ([1]; inhibitor 500 μM): 81 (4) %
Compound: CCCCCCCCCCCCCCCC(=O)OC/C=C(C)/C=C/C=C(C)/C=C/C1=C(C)CCCC1(C)C [Retinol palmitate]

% of control metabolism (SD, n = 3), 7-HFC glucuronidation ([1]; inhibitor 500 μM): 126 (4) %
Compound: C=CC[C@@H]1/C=C(\C)C[C@H](C)C[C@H](OC)[C@H]2O[C@@](O)(C(=O)C(=O)N3CCCC[C@H]3C(=O)O[C@H](/C(C)=C/[C@@H]3CC[C@@H](O)[C@H](OC)C3)[C@H](C)[C@@H](O)CC1=O)[C@H](C)C[C@@H]2OC [Tacrolimus]

% of control metabolism (SD, n = 3), raloxifene glucuronide G1 [2, 6]: 76 (6) %
% of control metabolism (SD, n = 3), raloxifene glucuronide G1 [2, 4]: 25 (3) %
% of control metabolism (SD, n = 3), raloxifene glucuronide G2 [2, 7]: 79 (4) %
% of control metabolism (SD, n = 3), raloxifene glucuronide G2 [2, 5]: 44 (2) %
% of control metabolism (SD, n = 3), 7-HFC glucuronidation ([1]; inhibitor 500 μM): 85 (0) %
Compound: CC1=C(CC(=O)O)c2cc(F)ccc2/C1=C\c1ccc([S+](C)[O-])cc1 (stereo not shown) [Sulindac]

% of control metabolism (SD, n = 3), 7-HFC glucuronidation ([1]; inhibitor 500 μM): 87 (0) %
Compound: COc1cc(/C=C/CO)ccc1O [Coniferol]

% of control metabolism (SD, n = 3), 7-HFC glucuronidation ([1]; inhibitor 500 μM): 96 (1) %
Compound: CCCCCCCCCCCCCCCC(=O)Oc1ccc([N+](=O)[O-])cc1 [p-Nitrophenyl palmitate]

% of control metabolism (SD, n = 3), 7-HFC glucuronidation ([1]; inhibitor 500 μM): 78 (2) %
Compound: CC1=CC(=O)c2ccccc2C1=O [Vitamin K3]
